In patent US20160193216A1 (Nimbus Iris, Inc., priority 2012, published 2016):

Tests used:
[1] = tested on: ABC DLBCL Cells; assay: sensitization of ABC DLBCL cells to IRAK inhibitors by BTK knockdown; type: cell-based; details: BTK knockdown (FIG. 9)
Excerpt: FIG. 8 depicts the sensitization of ABC DLBCL Cells to IRAK Inhibitors by BTK knockdown.

[2] = target: T1, IRAK4 (Homo sapiens, UniProt Q9NWZ3); assay: IRAK-4 activity inhibition assay (Caliper); type: biochemical; details: 37 μM ATP, 3.5 nM IRAK4
T1 sequence (Q9NWZ3 1-460): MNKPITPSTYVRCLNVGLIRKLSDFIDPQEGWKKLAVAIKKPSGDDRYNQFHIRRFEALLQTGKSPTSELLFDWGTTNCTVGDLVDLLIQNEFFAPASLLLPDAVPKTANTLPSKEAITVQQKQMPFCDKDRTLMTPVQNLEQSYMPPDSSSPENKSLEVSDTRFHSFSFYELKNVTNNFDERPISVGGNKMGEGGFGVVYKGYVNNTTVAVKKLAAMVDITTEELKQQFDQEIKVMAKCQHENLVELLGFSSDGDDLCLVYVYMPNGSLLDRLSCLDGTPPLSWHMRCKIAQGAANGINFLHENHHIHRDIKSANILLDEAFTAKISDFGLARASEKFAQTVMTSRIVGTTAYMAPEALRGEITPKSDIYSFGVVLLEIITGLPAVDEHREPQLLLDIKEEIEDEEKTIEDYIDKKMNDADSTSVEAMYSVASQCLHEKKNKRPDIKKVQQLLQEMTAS

[3] = tested on: MSU-induced gout; assay: In vivo murine air pouch model of human gout (MSU); details: Balb/c mice, oral twice a day for six days, 10, 30 or 100 mg/kg
Procedure: In Vivo Murine Air Pouch Model of Human Gout Compounds of the present invention were also evaluated in mice in an in vivo efficacy model for inhibiting monosodium urate (MSU) induced model of gout. An exemplary protocol for this assay follows. A sterile air pouch was created in Balb/c mice. I-67 was administered orally to the mice twice a day for six days at doses of either 10, 30 or 100 mg/kg. Following the last dose the mice were anesthetized and the air pouch was injected with a suspension of monosodium urate (MSU) to induce the inflammatory response. Four hours after the injection the air pouch exudate was collected and the number of white blood cells was measured.

[4] = tested on: ABC DLBCL cell lines; assay: Cell viability assay, combination with ibrutinib; type: cell-based
Procedure: Compounds of the present invention were also evaluated in a cell viability assay.

Structure (SMILES): NC(=O)C[C@H]1CCc2sc3ncnc(O[C@H]4CC[C@H](N5CCOCC5)CC4)c3c21 [Compound I-67, 2-((R)-4-(((1r,4R)-4-morpholinocyclohexyl)oxy)-6,7-dihydro-5H-cyclopenta[4,5]thieno[2,3-d]pyrimidin-5-yl)acetamide]
- sensitization of ABC DLBCL Cells to compound by BTK knockdown [1]: sensitization
- IC50 [2]: < 5 µM
- Efficacy in MSU-induced gout (white blood cell counts in air pouch exudate) [3]: efficacious
- Killing of ABC DLBCL cells in combination with ibrutinib [4]: Synergistic killing
